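Protocol summary: plate cells (96-well), add compound at 5 concentrations, incubate 48 h, interpolate endpoints linearly. Definition used: TGI = concentration required for complete inhibition of growth.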
Assays:
Experiment in all cases: NCI anticancer screen, dose series, 48 h
SF-268 CNS = test system: SF-268 CNS
SK-MEL-2 melanoma = test system: SK-MEL-2 melanoma
SNB-19 CNS = test system: SNB-19 CNS
UACC-62 melanoma = test system: UACC-62 melanoma
K-562 leukemia = test system: K-562 leukemia
SN12C renal = test system: SN12C renal
UACC-257 melanoma = test system: UACC-257 melanoma
HL-60(TB) leukemia = test system: HL-60(TB) leukemia
NCI-H23 lung = test system: NCI-H23 lung
SW-620 colon = test system: SW-620 colon
A549 NSCLC = test system: A549 NSCLC
HOP-18 NSCLC = test system: HOP-18 NSCLC
HT29 colon = test system: HT29 colon
SK-MEL-28 melanoma = test system: SK-MEL-28 melanoma
M19-MEL melanoma = test system: M19-MEL melanoma
LXFL 529 NSCLC = test system: LXFL 529 NSCLC
NCI-H460 lung = test system: NCI-H460 lung
NCI-H226 lung = test system: NCI-H226 lung
IGROV1 ovarian = test system: IGROV1 ovarian
OVCAR-8 ovarian = test system: OVCAR-8 ovarian
SK-MEL-5 melanoma = test system: SK-MEL-5 melanoma
TK-10 renal = test system: TK-10 renal
MOLT-4 leukemia = test system: MOLT-4 leukemia
KM12 colon = test system: KM12 colon
HCC-2998 colon = test system: HCC-2998 colon
NCI-H522 lung = test system: NCI-H522 lung
MALME-3M melanoma = test system: MALME-3M melanoma
CCRF-CEM leukemia = test system: CCRF-CEM leukemia
OVCAR-3 ovarian = test system: OVCAR-3 ovarian
RPMI-8226 leukemia = test system: RPMI-8226 leukemia
SR leukemia = test system: SR leukemia
ACHN renal = test system: ACHN renal
HCT-116 colon = test system: HCT-116 colon
HOP-92 NSCLC = test system: HOP-92 NSCLC
RXF 393 renal = test system: RXF 393 renal
RXF-631 renal = test system: RXF-631 renal
HOP-62 NSCLC = test system: HOP-62 NSCLC
786-0 renal = test system: 786-0 renal
HCT-15 colon = test system: HCT-15 colon
U251 CNS = test system: U251 CNS
OVCAR-5 ovarian = test system: OVCAR-5 ovarian
SF-295 CNS = test system: SF-295 CNS
COLO 205 colon = test system: COLO 205 colon
DLD-1 colon = test system: DLD-1 colon
EKVX NSCLC = test system: EKVX NSCLC
DMS 273 small cell lung = test system: DMS 273 small cell lung
SK-OV-3 ovarian = test system: SK-OV-3 ovarian
LOX IMVI melanoma = test system: LOX IMVI melanoma
KM20L2 colon = test system: KM20L2 colon
SF-539 CNS = test system: SF-539 CNS
CAKI-1 renal = test system: CAKI-1 renal

Measured: TGI

COC(=O)c1ccc(Cc2ccc(C(=O)OC)o2)o1
> 378 µM: all assays above

Source: PubChem BioAssay (NCI)
